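Five compound concentrations were applied to cells in 96-well plates for 48 hours; endpoints were derived by simple linear interpolation of the resulting dose-response curve. At the GI50, growth is halved. TGI: total growth inhibition.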

What all share (test): NCI tumour cell line growth inhibition, 48 h
Test [1] concerns UACC-257 melanoma.
In test [2] the test system is SK-MEL-28 melanoma.
Test [3] concerns IGROV1 ovarian.
For test [4], the system named is K-562 leukemia.
In test [5] the test system is EKVX NSCLC.
The test system of test [6] is SF-539 CNS.
Test [7] deals with MOLT-4 leukemia.
Test [8] relates to NCI-H522 lung.
Test [9] deals with CAKI-1 renal.
Test [10] deals with CCRF-CEM leukemia.

`CCOC(=O)C(=O)Nc1cc(Cl)c(Cl)cc1Cl`: the TGI in test [1], in test [2], in test [3], in [4], in test [5] and in test [6] was over 100 µM throughout. The TGI in test [7], in test [8] and in test [9] was over 100 µM each time.

`Cc1cccc(C)c1NC(=O)CCc1nnc2s/c(=C\c3ccc(N(C)C)cc3)c(=O)n12`: the TGI in test [1], in test [2], in test [3], in test [4], in test [10] and in test [6] was over 100 µM each time. In addition, the TGI in test [7], in test [8] and in test [9] was over 100 µM throughout.

On to `C[N+](C)(C)CC1CCC(C[N+](C)(C)C)C1=O` (configuration not stated), for which the TGI came out at 9.05 µM in test [1]; 11.1 µM in [2]; 13.6 µM in test [3]; 1.34 µM in test [4]; 1.47 µM in [10]; 17.5 µM in [5]. For the same compound, the values for the TGI in [6], in test [7] and in test [9] were 15.5 µM, 0.801 µM and 1.55 µM, respectively. The GI50 in [2] was 5.99 µM; in test [10], 0.258 µM; in test [5] it was 4.43 µM; in test [7] it was 0.25 µM.

Regarding `N#Cc1ccc(-c2c(-c3ncn[nH]3)sc(N3CCOCC3)c2C#N)c(F)c1`, the GI50 in test [1] was 0.418 µM; in test [2] it was 0.458 µM; in test [3], 0.181 µM; in [4], 5.52 µM; in test [10], 3.88 µM; in test [6] it was 0.571 µM. For the same compound, the GI50 in test [7] was 0.484 µM; in [8], 1.17 µM; in [9] it was 0.432 µM. Further, the TGI in [1] is 8.85 µM; in test [2] it was 5.33 µM; in [3] it was 0.948 µM; in test [4], over 100 µM; in [10], over 100 µM; in test [6], 4.53 µM. Also, the TGI in test [7] came to 27.6 µM; in test [8], 15 µM; in test [9] it was 15.6 µM.

Regarding `NCCCOc1cc2ccccc2cc1C(=O)Nc1ccc(Cl)cc1OC(=O)c1cc2ccccc2cc1OCCCN`, the GI50 is 1.01 µM in test [1]; 0.382 µM in test [2]; 0.413 µM in test [10]; 0.345 µM in test [6]; 0.468 µM in test [7]; 0.235 µM in [8]. The GI50 in test [9] is 1.4 µM. For the same compound, the TGI in [1] amounted to 2.32 µM; in test [2], 0.949 µM; in [10], 1.39 µM; in test [6], 0.9 µM; in [7], 3.66 µM; in test [8] it was 0.639 µM. The TGI in test [9] was 4.12 µM.

Turning to `O=C1CC(c2c(-c3ccccc3)[nH]c3ccccc23)C(=O)N1c1ccccc1` (configuration not stated), the TGI in test [1], in test [2], in test [3], in test [4], in test [10] and in test [5] was over 100 µM each time. The TGI in test [6], in [7] and in test [9] was over 100 µM throughout.

As for `COC(=O)c1cccc2c3ccccc3c3ccccc3c12`, the TGI is over 100 µM in [1]; over 100 µM in test [2]; over 100 µM in [3]; 79.3 µM in [4]; 72.8 µM in test [10]; over 100 µM in [5]. Also, the TGI was 61.7 µM in test [7], 80.9 µM in [8] and over 100 µM in test [9].

Turning to `COC(=O)CCC(=O)N1C/C(=C\c2ccccc2)C(=O)/C(=C/c2ccccc2)C1`, the TGI is 4.11 µM in test [1]; 4.24 µM in test [2]; 3.94 µM in [3]; over 100 µM in test [4]; over 100 µM in test [10]; 14.3 µM in test [5]. In addition, the values for the TGI in [6], in test [7] and in test [9] were 7.53 µM, 7.77 µM and 3.22 µM, respectively.

In the case of `O=C(O)c1cc2ccccc2c2c3c(ccc12)OCO3`, the GI50 in test [1] was 220 µM; in test [2], 167 µM; in [3], 201 µM; in test [4], 259 µM; in [6] it was 132 µM; in [7], 192 µM. For the same compound, the GI50 in test [9] is 185 µM. In addition, the TGI in test [1] is 600 µM; in [2], 491 µM; in test [3], 738 µM; in test [4], over 1000 µM; in test [6], 337 µM; in test [7], 513 µM. For the same compound, in test [9], the TGI came out at 761 µM.

On to `O=C(Nc1cccc(-n2cc(-c3ccncc3)c(-c3ccc(O)c(Cl)c3)n2)c1)c1ccc2c(c1)OCCO2`, for which the GI50 is over 100 µM in [1]; over 100 µM in test [3]; 4.26 µM in [4]; 3.75 µM in test [10]; 6.63 µM in [6]; 4.88 µM in test [7]. The GI50 is 6.25 µM in test [8] and 6.34 µM in [9]. Besides, the TGI in test [1], in [3], in [4], in test [10], in [6] and in test [7] was over 100 µM in each case. Further, the TGI in [8] and in [9] was over 100 µM each time.

Consider `N#CC1=C(N)NC(=S)NC1c1ccc(-c2ccc(-c3nc4ccccc4o3)cc2)s1` (configuration not stated), for which the GI50 in test [1] was 11.2 µM; in test [3], 2.21 µM; in test [4], 4.7 µM; in [5], 14 µM; in [8], 9.65 µM; in test [9], 10.1 µM. In addition, the TGI in [1] turned out to be 26.8 µM; in test [3] it was 12.7 µM; in [4], 15.5 µM; in test [5], 48.2 µM; in [8], 20.8 µM; in [9], 36.4 µM.
